Experimental data: the supplement of paper PMC10307832

Columns and labels:
Assay in all cases: relative viability (nuclei count vs DMSO), 5 days (fraction); higher = more cells survive
[1] = compound: C1=CC2=C(C=C(C(=C2N=C1)O)N=NC3=CC4=C(C=C3)C=C(C=C4)S(=O)(=O)O)S(=O)(=O)O + C[C@]1(O)C[C@@H](c2nc(-c3ccc4ccc(-c5ccccc5)nc4c3)c3c(N)nccn32)C1 [Linsitinib] (partner 1 µM)
Procedure, shortened: (§1)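 Lung cancer cell lines in 1536-well plates were dosed by pin tool the day after seeding, either with one drug alone or with a fixed anchor-drug dose plus five library-drug doses (not always all listed) in √10 steps. After 5 days, cells were fixed and their nuclei stained in one step (final 0.05% Triton X-100, 1% formaldehyde, 1 ug/ml Hoechst), then counted on 4× images. Relative viability is the nuclei count in treated wells divided by that in vehicle wells. Values are medians of duplicate plates.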

[2] = compound: O=C(NC1CCNCC1)c1n[nH]cc1NC(=O)c1c(Cl)cccc1Cl [AT-7519] + CC(=O)c1c(C)c2cnc(Nc3ccc(N4CCNCC4)cn3)nc2n(C2CCCC2)c1=O [Palbociclib] (partner 0.5 µM)
Procedure, shortened: as §1

[3] = compound: O=C(NC1CCNCC1)c1n[nH]cc1NC(=O)c1c(Cl)cccc1Cl [AT-7519] + Nc1ncn([C@H]2C[C@H](O)[C@@H](CO)O2)c(=O)n1 [Decitabine] (partner 2 µM)
Procedure, shortened: as §1

[4] = compound: C1=CC2=C(C=C(C(=C2N=C1)O)N=NC3=CC4=C(C=C3)C=C(C=C4)S(=O)(=O)O)S(=O)(=O)O + C[C@@H](Oc1cc(-c2cnn(C3CCNCC3)c2)cnc1N)c1c(Cl)ccc(F)c1Cl [Crizotinib] (partner 1 µM)
Procedure, shortened: as §1

In the case of HCC-366, the relative viability ([1]; first compound 0.08 µM) is reported as 0.557, the relative viability ([1]; first compound 0.253 µM) is reported as 0.578 and the relative viability ([1]; first compound 0.8 µM) is reported as 0.678. The relative viability ([1]; first compound 2.53 µM) was 0.603, the relative viability ([1]; first compound 8 µM) was 0.648 and the relative viability ([2]; first compound 0.01 µM) was 0.393. The relative viability ([2]; first compound 0.03162 µM) was 0.228, the relative viability ([2]; first compound 0.3162 µM) was 0.317 and the relative viability ([2]; first compound 1 µM) was 0.139. The relative viability ([3]; first compound 0.01 µM) was 0.324, the relative viability ([3]; first compound 0.03162 µM) was 0.31 and the relative viability ([3]; first compound 0.3162 µM) was 0.336. The relative viability ([3]; first compound 1 µM) was 0.215, the relative viability ([4]; first compound 0.08 µM) was 0.759 and the relative viability ([4]; first compound 0.253 µM) was 0.445. It also gave a relative viability ([4]; first compound 0.8 µM) of 0.404, a relative viability ([4]; first compound 2.53 µM) of 0.618 and a relative viability ([4]; first compound 8 µM) of 0.46.
With HCC-827 the relative viability ([1]; first compound 0.08 µM) was 1.01, the relative viability ([1]; first compound 0.253 µM) was 0.912 and the relative viability ([1]; first compound 0.8 µM) was 0.934. It also gave a relative viability ([1]; first compound 2.53 µM) of 0.935, a relative viability ([1]; first compound 8 µM) of 0.927 and a relative viability ([2]; first compound 0.01 µM) of 0.433. For the same cell line, the relative viability ([2]; first compound 0.03162 µM) was 0.494, the relative viability ([2]; first compound 0.3162 µM) was 0.478 and the relative viability ([2]; first compound 1 µM) was 0.398. It also gave a relative viability ([3]; first compound 0.01 µM) of 0.337, a relative viability ([3]; first compound 0.03162 µM) of 0.347 and a relative viability ([3]; first compound 0.3162 µM) of 0.355. The relative viability ([3]; first compound 1 µM) was 0.3, the relative viability ([4]; first compound 0.08 µM) was 0.97 and the relative viability ([4]; first compound 0.253 µM) was 0.886. The relative viability ([4]; first compound 0.8 µM) was 0.971, the relative viability ([4]; first compound 2.53 µM) was 0.911 and the relative viability ([4]; first compound 8 µM) was 0.998.
Work on HOP-62 yielded a relative viability ([1]; first compound 0.08 µM) of 0.992, a relative viability ([1]; first compound 0.253 µM) of 0.893 and a relative viability ([1]; first compound 0.8 µM) of 1.01. For the same cell line, the relative viability ([1]; first compound 2.53 µM) was 1, the relative viability ([1]; first compound 8 µM) was 0.926 and the relative viability ([2]; first compound 0.01 µM) was 0.422. It also gave a relative viability ([2]; first compound 0.03162 µM) of 0.465, a relative viability ([2]; first compound 0.3162 µM) of 0.489 and a relative viability ([2]; first compound 1 µM) of 0.489. The relative viability ([3]; first compound 0.01 µM) was 0.224, the relative viability ([3]; first compound 0.03162 µM) was 0.203 and the relative viability ([3]; first compound 0.3162 µM) was 0.217. The relative viability ([3]; first compound 1 µM) was 0.23, the relative viability ([4]; first compound 0.08 µM) was 1.14 and the relative viability ([4]; first compound 0.253 µM) was 0.725. The relative viability ([4]; first compound 0.8 µM) was 0.701, the relative viability ([4]; first compound 2.53 µM) was 1.09 and the relative viability ([4]; first compound 8 µM) was 1.02.
Cell Line IA-LM has a relative viability ([1]; first compound 0.08 µM) of 0.822, a relative viability ([1]; first compound 0.253 µM) of 0.68 and a relative viability ([1]; first compound 0.8 µM) of 0.472. The relative viability ([1]; first compound 2.53 µM) was 0.755, the relative viability ([1]; first compound 8 µM) was 0.568 and the relative viability ([4]; first compound 0.08 µM) was 1.16. For the same cell line, the relative viability ([4]; first compound 0.253 µM) was 0.602, the relative viability ([4]; first compound 0.8 µM) was 0.822 and the relative viability ([4]; first compound 2.53 µM) was 0.757. For the same cell line, the relative viability ([4]; first compound 8 µM) was 0.9.
LC-2-ad gave a relative viability ([1]; first compound 0.08 µM) of 0.623, a relative viability ([1]; first compound 0.253 µM) of 0.839 and a relative viability ([1]; first compound 0.8 µM) of 0.861. It also gave a relative viability ([1]; first compound 2.53 µM) of 0.805, a relative viability ([1]; first compound 8 µM) of 0.918 and a relative viability ([2]; first compound 0.01 µM) of 0.497. The relative viability ([2]; first compound 0.03162 µM) was 0.466, the relative viability ([2]; first compound 0.3162 µM) was 0.484 and the relative viability ([2]; first compound 1 µM) was 0.372. It also gave a relative viability ([3]; first compound 0.01 µM) of 0.789, a relative viability ([3]; first compound 0.03162 µM) of 0.765 and a relative viability ([3]; first compound 0.3162 µM) of 0.838. It also gave a relative viability ([3]; first compound 1 µM) of 0.737, a relative viability ([4]; first compound 0.08 µM) of 0.534 and a relative viability ([4]; first compound 0.253 µM) of 0.412. It also gave a relative viability ([4]; first compound 0.8 µM) of 0.462, a relative viability ([4]; first compound 2.53 µM) of 0.452 and a relative viability ([4]; first compound 8 µM) of 0.411.
Work on LCLC-97TM1 yielded a relative viability ([1]; first compound 0.253 µM) of 0.194, a relative viability ([1]; first compound 2.53 µM) of 0.196 and a relative viability ([1]; first compound 8 µM) of 0.18. It also gave a relative viability ([2]; first compound 0.01 µM) of 0.228, a relative viability ([2]; first compound 0.03162 µM) of 0.234 and a relative viability ([2]; first compound 0.3162 µM) of 0.215. The relative viability ([2]; first compound 1 µM) was 0.135, the relative viability ([3]; first compound 0.01 µM) was 0.281 and the relative viability ([3]; first compound 0.03162 µM) was 0.207. It also gave a relative viability ([3]; first compound 0.3162 µM) of 0.196, a relative viability ([3]; first compound 1 µM) of 0.169 and a relative viability ([4]; first compound 0.253 µM) of 0.35. For the same cell line, the relative viability ([4]; first compound 2.53 µM) was 0.424 and the relative viability ([4]; first compound 8 µM) was 0.325.
LCLC-103H was tested, and the relative viability ([1]; first compound 0.08 µM) was 1.2, the relative viability ([1]; first compound 0.253 µM) was 1.04 and the relative viability ([1]; first compound 0.8 µM) was 1. It also gave a relative viability ([1]; first compound 2.53 µM) of 1.15, a relative viability ([1]; first compound 8 µM) of 1.09 and a relative viability ([2]; first compound 0.01 µM) of 0.513. The relative viability ([2]; first compound 0.03162 µM) was 0.42, the relative viability ([2]; first compound 0.3162 µM) was 0.432 and the relative viability ([2]; first compound 1 µM) was 0.418. The relative viability ([3]; first compound 0.01 µM) was 0.785, the relative viability ([3]; first compound 0.03162 µM) was 0.669 and the relative viability ([3]; first compound 0.3162 µM) was 0.707. It also gave a relative viability ([3]; first compound 1 µM) of 0.653, a relative viability ([4]; first compound 0.08 µM) of 1.16 and a relative viability ([4]; first compound 0.253 µM) of 1.02. It also gave a relative viability ([4]; first compound 0.8 µM) of 0.978, a relative viability ([4]; first compound 2.53 µM) of 1.07 and a relative viability ([4]; first compound 8 µM) of 1.06.
Work on LK-2 yielded a relative viability ([1]; first compound 0.08 µM) of 0.797, a relative viability ([1]; first compound 0.253 µM) of 0.724 and a relative viability ([1]; first compound 0.8 µM) of 0.551. For the same cell line, the relative viability ([1]; first compound 2.53 µM) was 0.573, the relative viability ([1]; first compound 8 µM) was 0.472 and the relative viability ([2]; first compound 0.01 µM) was 0.783. It also gave a relative viability ([2]; first compound 0.03162 µM) of 0.968, a relative viability ([2]; first compound 0.3162 µM) of 0.675 and a relative viability ([2]; first compound 1 µM) of 0.547. The relative viability ([3]; first compound 0.01 µM) was 0.23, the relative viability ([3]; first compound 0.03162 µM) was 0.276 and the relative viability ([3]; first compound 0.3162 µM) was 0.298. For the same cell line, the relative viability ([3]; first compound 1 µM) was 0.266, the relative viability ([4]; first compound 0.08 µM) was 0.275 and the relative viability ([4]; first compound 0.253 µM) was 0.223. The relative viability ([4]; first compound 0.8 µM) was 0.244, the relative viability ([4]; first compound 2.53 µM) was 0.218 and the relative viability ([4]; first compound 8 µM) was 0.162.
Work on LOU-NH91 yielded a relative viability ([1]; first compound 0.08 µM) of 0.991, a relative viability ([1]; first compound 0.253 µM) of 0.988 and a relative viability ([1]; first compound 0.8 µM) of 0.957. The relative viability ([1]; first compound 2.53 µM) was 0.973, the relative viability ([1]; first compound 8 µM) was 0.891 and the relative viability ([2]; first compound 0.01 µM) was 0.491. It also gave a relative viability ([2]; first compound 0.03162 µM) of 0.552, a relative viability ([2]; first compound 0.3162 µM) of 0.524 and a relative viability ([2]; first compound 1 µM) of 0.461. For the same cell line, the relative viability ([3]; first compound 0.01 µM) was 0.761, the relative viability ([3]; first compound 0.03162 µM) was 0.791 and the relative viability ([3]; first compound 0.3162 µM) was 0.795. It also gave a relative viability ([3]; first compound 1 µM) of 0.739, a relative viability ([4]; first compound 0.08 µM) of 0.765 and a relative viability ([4]; first compound 0.253 µM) of 0.704. For the same cell line, the relative viability ([4]; first compound 0.8 µM) was 0.739, the relative viability ([4]; first compound 2.53 µM) was 0.79 and the relative viability ([4]; first compound 8 µM) was 0.717.
With LU99A the relative viability ([1]; first compound 0.08 µM) was 0.613, the relative viability ([1]; first compound 0.253 µM) was 0.559 and the relative viability ([1]; first compound 0.8 µM) was 0.552. For the same cell line, the relative viability ([1]; first compound 2.53 µM) was 0.528, the relative viability ([1]; first compound 8 µM) was 0.522 and the relative viability ([2]; first compound 0.01 µM) was 0.443. It also gave a relative viability ([2]; first compound 0.03162 µM) of 0.411, a relative viability ([2]; first compound 0.3162 µM) of 0.389 and a relative viability ([2]; first compound 1 µM) of 0.329. For the same cell line, the relative viability ([3]; first compound 0.01 µM) was 0.953, the relative viability ([3]; first compound 0.03162 µM) was 0.843 and the relative viability ([3]; first compound 0.3162 µM) was 0.791. For the same cell line, the relative viability ([3]; first compound 1 µM) was 0.484, the relative viability ([4]; first compound 0.08 µM) was 0.626 and the relative viability ([4]; first compound 0.253 µM) was 0.605. For the same cell line, the relative viability ([4]; first compound 0.8 µM) was 0.521, the relative viability ([4]; first compound 2.53 µM) was 0.57 and the relative viability ([4]; first compound 8 µM) was 0.574.
